# Assay results from ChEMBL document CHEMBL3124778, “Structure-based design of new dihydrofolate reductase antibacterial agents: 7-(benzimidazol-1-yl)-2,4-diaminoquinazolines” (J Med Chem, 2014).
# Key:
# Staphylococcus aureus [1] = test: Antibacterial activity against TMP-resistant Staphylococcus aureus expressing DHFR F99Y mutant after 18 to 24 hrs by alamar Blue assay; format: functional
# [2] = Selectivity ratio of Ki for human DHFR to Ki for Staphylococcus aureus DHFR
# Staphylococcus aureus [3] = test: Antibacterial activity against Staphylococcus aureus ATCC 13709 after 18 to 24 hrs by alamar Blue assay; format: functional
# Staphylococcus aureus [4] = test: Antibacterial activity against Staphylococcus aureus ATCC 13709 after 18 to 24 hrs by alamar Blue assay in presence of 20% heat inactivated mouse serum; format: functional
# Dihydrofolate reductase [5] = biological target: T1, Dihydrofolate reductase (Homo sapiens, UniProt P00374); test: Inhibition of human DHFR using dihydrofolate as substrate preincubated for 10 mins followed by substrate addition by spectrophotometric analysis in presence of NADPH
# T1 sequence (P00374 whole entry): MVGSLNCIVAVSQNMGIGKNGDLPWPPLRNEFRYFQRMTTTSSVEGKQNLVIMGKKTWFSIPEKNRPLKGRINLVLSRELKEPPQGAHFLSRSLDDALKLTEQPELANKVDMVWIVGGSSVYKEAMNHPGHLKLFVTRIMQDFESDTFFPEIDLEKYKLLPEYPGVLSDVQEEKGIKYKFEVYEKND
# Dihydrofolate reductase [6] = biological target: Dihydrofolate reductase (Staphylococcus aureus, UniProt P0A017); test: Inhibition of Staphylococcus aureus DHFR using dihydrofolate as substrate preincubated for 10 mins followed by substrate addition by spectrophotometric analysis in presence of NADPH
# Dihydrofolate reductase (Staphylococcus aureus, UniProt P0A017), sequence (P0A017 whole entry): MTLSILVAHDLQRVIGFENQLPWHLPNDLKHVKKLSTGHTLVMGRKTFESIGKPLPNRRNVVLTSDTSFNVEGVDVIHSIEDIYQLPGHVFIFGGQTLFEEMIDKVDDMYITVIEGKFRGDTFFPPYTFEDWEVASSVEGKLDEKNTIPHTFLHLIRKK
# Streptococcus pneumoniae [7] = test: Antibacterial activity against Streptococcus pneumoniae ATCC 700676 after 18 to 24 hrs by alamar Blue assay; format: functional
# Streptococcus pneumoniae [8] = test: Antibacterial activity against Streptococcus pneumoniae ATCC 700904 after 18 to 24 hrs by alamar Blue assay; format: functional
# Streptococcus pneumoniae [9] = test: Antibacterial activity against Streptococcus pneumoniae ATCC 700671 after 18 to 24 hrs by alamar Blue assay; format: functional
# Streptococcus pneumoniae [10] = test: Antibacterial activity against Streptococcus pneumoniae ATCC 700677 after 18 to 24 hrs by alamar Blue assay; format: functional
# Streptococcus pneumoniae [11] = test: Antibacterial activity against Streptococcus pneumoniae ATCC 700675 after 18 to 24 hrs by alamar Blue assay; format: functional
# Streptococcus pneumoniae [12] = test: Antibacterial activity against Streptococcus pneumoniae ATCC 700674 after 18 to 24 hrs by alamar Blue assay; format: functional
# Streptococcus pneumoniae [13] = test: Antibacterial activity against Streptococcus pneumoniae ATCC 49619 after 18 to 24 hrs by alamar Blue assay; format: functional
# Streptococcus pneumoniae [14] = test: Antibacterial activity against Streptococcus pneumoniae ATCC 51916 after 18 to 24 hrs by alamar Blue assay; format: functional
# Streptococcus pneumoniae [15] = test: Antibacterial activity against Streptococcus pneumoniae ATCC 700669 after 18 to 24 hrs by alamar Blue assay; format: functional
# Streptococcus pneumoniae [16] = test: Antibacterial activity against Streptococcus pneumoniae after 18 to 24 hrs by alamar Blue assay; format: functional
# Streptococcus pneumoniae [17] = test: Antibacterial activity against Streptococcus pneumoniae ATCC BAA-255 after 18 to 24 hrs by alamar Blue assay; format: functional
# [18] = AUClast in BALB/c mouse at 5 mg/kg, iv; format: ADME, organism-based; set-up: dose 5 mg/kg, route intravenous, time 0 - last; details: plasma
# [19] = Apparent volume of distribution in BALB/c mouse at 5 mg/kg, iv; format: ADME, organism-based; set-up: dose 5 mg/kg, route intravenous; details: in vivo, read-out: Vz
# Staphylococcus aureus [20] = test: animal or person; details: ATCC 13709, in Mus musculus, iv, 24 h, read-out: PD50
# Description: Antibacterial activity against Staphylococcus aureus ATCC 13709 infected in iv dosed BALB/c mouse septicemia model assessed as protection from lethal infection after 24 hrs
# [21] = Terminal half life in BALB/c mouse at 5 mg/kg, iv; format: ADME, organism-based; set-up: dose 5 mg/kg, route intravenous; details: in vivo, read-out: beta t1/2 (converted)
# [22] = Total clearance in BALB/c mouse at 5 mg/kg, iv; format: ADME, organism-based; set-up: dose 5 mg/kg, route intravenous; details: in vivo
# [23] = Plasma concentration in BALB/c mouse at 5 mg/kg, iv measured at 2 mins by LC-MS/MS analysis; format: ADME, organism-based; set-up: dose 5 mg/kg, route intravenous
# Staphylococcus aureus [24] = test: Ratio of iclaprim MIC to compound MIC for TMP-resistant Staphylococcus aureus expressing DHFR F99Y mutant; format: functional
Compound,MIC (Staphylococcus aureus [1]),Ratio Ki [2],MIC (Staphylococcus aureus [3]),MIC (Staphylococcus aureus [4]),Ki (Dihydrofolate reductase [5]),Ki (Dihydrofolate reductase [6]),also measured
COc1cc2nc(-c3nccs3)n(-c3cc4nc(N)nc(N)c4cc3Cl)c2cc1OC,2 µg/mL,29000,0.125 µg/mL,,,,
Cc1cc2nc(N3CCOCC3)n(-c3ccc4c(N)nc(N)nc4c3)c2cc1C,> 64 µg/mL,,,,,,
COc1cc2nc(-c3ccco3)n(-c3cc4nc(N)nc(N)c4cc3Cl)c2cc1OC,8 µg/mL,,0.5 µg/mL,0.5 µg/mL,610 nM,0.024 nM,
Cc1cc2ncn(-c3ccc4c(N)nc(N)nc4c3)c2cc1C,> 64 µg/mL,,2 µg/mL,32 µg/mL,1610 nM,1.7 nM,
COc1ccc(-c2nc3cc(C)c(C)cc3n2-c2ccc3c(N)nc(N)nc3c2)cc1,> 64 µg/mL,,2 µg/mL,8 µg/mL,2300 nM,0.34 nM,
Cc1cc2nc(-c3cccnc3)n(-c3ccc4c(N)nc(N)nc4c3)c2cc1C,32 µg/mL,> 1250,0.5 µg/mL,2 µg/mL,1560 nM,0.26 nM,
Cc1cc2nc(-c3cscn3)n(-c3ccc4c(N)nc(N)nc4c3)c2cc1C,16 µg/mL,11500,2 µg/mL,2 µg/mL,1100 nM,0.096 nM,
Cc1cc2nc(-c3cncn3C)n(-c3ccc4c(N)nc(N)nc4c3)c2cc1C,64 µg/mL,,4 µg/mL,32 µg/mL,2920 nM,1.1 nM,
Cc1cc2nc(-c3nccs3)n(-c3cc4nc(N)nc(N)c4cc3C)c2cc1C,0.125 µg/mL,97,0.03 µg/mL,0.06 µg/mL,,,
Cc1cc2nc(-c3ccncc3)n(-c3ccc4c(N)nc(N)nc4c3)c2cc1C,8 µg/mL,,0.125 µg/mL,0.5 µg/mL,437 nM,0.026 nM,
COc1cc2nc(-c3cccs3)n(-c3cc4nc(N)nc(N)c4cc3Cl)c2cc1OC,4 µg/mL,,0.5 µg/mL,0.5 µg/mL,> 3000 nM,0.048 nM,
COc1cc(Cc2cnc(N)nc2N)cc(OC)c1OC [TRIMETHOPRIM],,,,,,,MIC (Streptococcus pneumoniae [7]): 4 µg/mL; MIC (Streptococcus pneumoniae [8]): > 64 µg/mL; MIC (Streptococcus pneumoniae [9]): > 64 µg/mL; MIC (Streptococcus pneumoniae [10]): 4 µg/mL; MIC (Streptococcus pneumoniae [11]): 8 µg/mL; MIC (Streptococcus pneumoniae [12]): > 64 µg/mL; MIC (Streptococcus pneumoniae [13]): 4 µg/mL; MIC (Streptococcus pneumoniae [14]): > 64 µg/mL; MIC (Streptococcus pneumoniae [15]): > 64 µg/mL; MIC50 (Streptococcus pneumoniae [16]): 8 µg/mL; MIC90 (Streptococcus pneumoniae [16]): > 64 µg/mL; MIC (Streptococcus pneumoniae [17]): 0.5 µg/mL
Cc1cc2nc(-c3nccs3)n(-c3ccc4c(N)nc(N)nc4c3)c2cc1C,0.25 µg/mL,,0.015 µg/mL,0.125 µg/mL,,,MIC (Streptococcus pneumoniae [7]): ≤ 0.5 µg/mL; MIC (Streptococcus pneumoniae [8]): 4 µg/mL; MIC (Streptococcus pneumoniae [9]): 32 µg/mL; AUC(0-t) [18]: 2400 ng·h/mL; MIC (Streptococcus pneumoniae [10]): ≤ 0.5 µg/mL; MIC (Streptococcus pneumoniae [11]): ≤ 0.5 µg/mL; Vd [19]: 4.4 L/kg; MIC (Streptococcus pneumoniae [12]): 8 µg/mL; MIC (Streptococcus pneumoniae [13]): 0.25 µg/mL; MIC (Streptococcus pneumoniae [14]): ≤ 0.5 µg/mL; MIC (Streptococcus pneumoniae [15]): 8 µg/mL; MIC50 (Streptococcus pneumoniae [16]): ≤ 0.5 µg/mL; MIC90 (Streptococcus pneumoniae [16]): 8 µg/mL; ED50 (Staphylococcus aureus [20]): 2 mg/kg; MIC (Streptococcus pneumoniae [17]): ≤ 0.5 µg/mL; half-life [21]: 1.4 h; clearance [22]: 35 mL/min/kg; concentration at 2 min [23]: 12700 ng/mL; Ratio (Staphylococcus aureus [24]): 8
Cc1cc2nc(-c3cccn3C)n(-c3ccc4c(N)nc(N)nc4c3)c2cc1C,64 µg/mL,,8 µg/mL,32 µg/mL,> 5000 nM,4 nM,
Cc1cc2nc(-c3ccco3)n(-c3ccc4c(N)nc(N)nc4c3)c2cc1C,1 µg/mL,,0.015 µg/mL,0.125 µg/mL,943 nM,0.007 nM,
Cc1cc2nc(-c3ccoc3)n(-c3ccc4c(N)nc(N)nc4c3)c2cc1C,2 µg/mL,90000,0.06 µg/mL,1 µg/mL,723 nM,0.008 nM,
Cc1cc2nc(C3CCOC3)n(-c3ccc4c(N)nc(N)nc4c3)c2cc1C (stereo not given),> 64 µg/mL,,8 µg/mL,64 µg/mL,> 5000 nM,4.2 nM,
Cc1cc2nc(-c3ccsc3)n(-c3ccc4c(N)nc(N)nc4c3)c2cc1C,2 µg/mL,,0.03 µg/mL,,,,
Cc1cc2nc(C3CCCO3)n(-c3ccc4c(N)nc(N)nc4c3)c2cc1C (stereo not given),16 µg/mL,,0.5 µg/mL,> 16 µg/mL,749 nM,0.2 nM,
Cc1cc2nc(-c3ccccn3)n(-c3ccc4c(N)nc(N)nc4c3)c2cc1C,4 µg/mL,26000,0.125 µg/mL,,,,
COc1cc2nc(-c3nccs3)n(-c3cc4nc(N)nc(N)c4cc3C)c2cc1OC,8 µg/mL,8950,0.5 µg/mL,0.5 µg/mL,,,
Cc1cc2nc(-c3cccs3)n(-c3ccc4c(N)nc(N)nc4c3)c2cc1C,0.25 µg/mL,,0.015 µg/mL,,,,MIC (Streptococcus pneumoniae [7]): 0.25 µg/mL; MIC (Streptococcus pneumoniae [8]): 4 µg/mL; MIC (Streptococcus pneumoniae [9]): 32 µg/mL; MIC (Streptococcus pneumoniae [10]): 0.25 µg/mL; MIC (Streptococcus pneumoniae [11]): 1 µg/mL; MIC (Streptococcus pneumoniae [12]): 16 µg/mL; MIC (Streptococcus pneumoniae [13]): ≤ 0.5 µg/mL; MIC (Streptococcus pneumoniae [14]): 4 µg/mL; MIC (Streptococcus pneumoniae [15]): 4 µg/mL; MIC50 (Streptococcus pneumoniae [16]): 1 µg/mL; MIC90 (Streptococcus pneumoniae [16]): 16 µg/mL; MIC (Streptococcus pneumoniae [17]): ≤ 0.125 µg/mL
CN(Cc1cnc2nc(N)nc(N)c2n1)c1ccc(C(=O)N[C@@H](CCC(=O)O)C(=O)O)cc1 [METHOTREXATE],,,> 64 µg/mL,,,,
COc1cc2nc(-c3nccs3)n(-c3ccc4c(N)nc(N)nc4c3)c2cc1OC,16 µg/mL,5300,,,,,
Cc1cc2nc(-c3cccs3)n(-c3cc4nc(N)nc(N)c4cc3Cl)c2cc1C,4 µg/mL,,0.03 µg/mL,1 µg/mL,> 3000 nM,0.01 nM,MIC (Streptococcus pneumoniae [7]): 0.25 µg/mL; MIC (Streptococcus pneumoniae [8]): 4 µg/mL; MIC (Streptococcus pneumoniae [9]): > 64 µg/mL; MIC (Streptococcus pneumoniae [10]): 0.25 µg/mL; MIC (Streptococcus pneumoniae [11]): 1 µg/mL; MIC (Streptococcus pneumoniae [12]): > 64 µg/mL; MIC (Streptococcus pneumoniae [13]): 0.5 µg/mL; MIC (Streptococcus pneumoniae [14]): 1 µg/mL; MIC (Streptococcus pneumoniae [15]): 2 µg/mL; MIC50 (Streptococcus pneumoniae [16]): 1 µg/mL; MIC90 (Streptococcus pneumoniae [16]): > 64 µg/mL; MIC (Streptococcus pneumoniae [17]): ≤ 0.125 µg/mL
COc1cc(Cc2cnc(N)nc2N)c2c(c1OC)OC(C1CC1)C=C2 (stereo not given),,,0.125 µg/mL,0.125 µg/mL,,,MIC (Streptococcus pneumoniae [7]): ≤ 0.5 µg/mL; MIC (Streptococcus pneumoniae [8]): 4 µg/mL; MIC (Streptococcus pneumoniae [9]): 16 µg/mL; MIC (Streptococcus pneumoniae [10]): ≤ 0.5 µg/mL; MIC (Streptococcus pneumoniae [11]): ≤ 0.5 µg/mL; MIC (Streptococcus pneumoniae [12]): 8 µg/mL; MIC (Streptococcus pneumoniae [13]): 0.125 µg/mL; MIC (Streptococcus pneumoniae [14]): 1 µg/mL; MIC (Streptococcus pneumoniae [15]): 8 µg/mL; MIC50 (Streptococcus pneumoniae [16]): ≤ 0.5 µg/mL; MIC90 (Streptococcus pneumoniae [16]): 8 µg/mL; MIC (Streptococcus pneumoniae [17]): ≤ 0.5 µg/mL
Cc1cc2nc(-c3nccs3)n(-c3cc4nc(N)nc(N)c4cc3Cl)c2cc1C,0.25 µg/mL,690,0.125 µg/mL,,,,MIC (Streptococcus pneumoniae [7]): ≤ 0.5 µg/mL; MIC (Streptococcus pneumoniae [8]): 1 µg/mL; MIC (Streptococcus pneumoniae [9]): 4 µg/mL; MIC (Streptococcus pneumoniae [10]): ≤ 0.5 µg/mL; MIC (Streptococcus pneumoniae [11]): ≤ 0.5 µg/mL; MIC (Streptococcus pneumoniae [12]): 4 µg/mL; MIC (Streptococcus pneumoniae [13]): 0.125 µg/mL; MIC (Streptococcus pneumoniae [14]): ≤ 0.5 µg/mL; MIC (Streptococcus pneumoniae [15]): 4 µg/mL; MIC50 (Streptococcus pneumoniae [16]): ≤ 0.5 µg/mL; MIC90 (Streptococcus pneumoniae [16]): 4 µg/mL; MIC (Streptococcus pneumoniae [17]): ≤ 0.5 µg/mL
COc1cc2nc(-c3ccccn3)n(-c3ccc4c(N)nc(N)nc4c3)c2cc1OC,> 64 µg/mL,2300,4 µg/mL,16 µg/mL,841 nM,0.36 nM,
Cc1cc2nc(C3CC3)n(-c3ccc4c(N)nc(N)nc4c3)c2cc1C,8 µg/mL,,0.5 µg/mL,,,,
